Patent US20150011393A1, “METHOD FOR INTRODUCING FLORIGEN” (priority 2012, published 2015)

Assays:
[1] = tested on: Rice radicles, cultured rice cells (rice protoplasts), tobacco leaves, and Arabidopsis leaves; assay: Quantitative efficiency of introduction of GFP by eight cell-penetrating peptides in four tissues; type: cell-based; settings: rank among eight cell-penetrating peptides over four tissues (32 treatment groups)
Experimental: Eight kinds of cell-penetrating peptides shown in Table 1 above and GFP were separately mixed in PBS (137 mM NaCl, 2.7 mM KCl, 10 mM Na2HPO4, 1.76 mM KH2PO4) (pH 7.4) so as to achieve a final concentration of 50 μM, and rice radicles were immersed in the mixtures. The eight kinds of cell-penetrating peptides are typical peptides selected from arginine-rich peptides, amphiphilic peptides, and peptides each having an RXLR sequence, and were prepared by chemical synthesis.
The immersion treatment was carried out for 16 hours at room temperature, followed by low-temperature treatment at 4° C. for 4 hours. The samples were washed until fluorescence was not observed in a negative control group treated with GFP alone, and cells were counted under a fluorescence stereomicroscope to calculate ratios of fluorescent cells.
(2) The efficiency of introduction of GFP by the eight kinds of cell-penetrating peptides was examined quantitatively in the same manner as in (1) above. Rice radicles (FIG. 2a), cultured rice cells (rice protoplasts) (FIG. 2b), tobacco leaves (FIG. 2c), and Arabidopsis leaves (FIG. 2d) were used as tissues to be examined. A total of 32 treatment groups were evaluated.

[2] = tested on: rice root epidermal cells; assay: Effect of molar ratio of cell-penetrating peptide to protein on efficiency of introduction of GFP; type: cell-based
Experimental: (3) The effect of the molar ratios of the cell-penetrating peptides to the protein on the efficiency of introduction of the protein was examined. The molar ratios of the cell-penetrating peptides (Avr1b and R9) to the protein were changed to 0.01, 0.1, 1, and 10, and the efficiency of introduction of GFP into rice root epidermal cells was evaluated.

Arabidopsis = assay: Flowering-promoting effect in Arabidopsis plant body after direct introduction of florigen; type: in vivo
Experimental: A mixed solution prepared by mixing the florigen mHd3a-1 and the cell-penetrating peptide R9 in ten-times diluted PBS in the same manner as in Example 3 was used for treatment of seedling of Arabidopsis at the time of cotyledon expansion about three days after seeding. It should be noted that the shoot apices in seedling of Arabidopsis was exposed at the time of cotyledon expansion. The treatment was carried out at room temperature for 2 days. After that, the mixed solution was washed, and the plants were cultivated on the MS medium under a short-day condition (day length: 10 hours) for from 30 to 40 days to examine the timing of the flowering. The examination condition of the start of the flowering was defined as the start of bolting or a state where differentiation of flower buds was visually observed, and whether the flowering was early or late was evaluated based on the number of rosette leaves at the time when the state described above was achieved. In the case of Arabidopsis, rosette leaves are usually extracted, and the extraction of the rosette leaves is stopped when the flowering is started. When the flowering is started in the early stage, the number of the leaves is small because only a small number of the rosette leaves can be extracted, while when it takes a long time before the flowering is started, the number of the leaves is large because many rosette leaves can be extracted.
FIG. 12 and FIG. 13 show the results. FIG. 12 are photographs taken on day 14 and day 21, when the cultivation start date under the short-day condition is defined as day 0. The enlarged view is one obtained by enlarging the area enclosed by a dashed line in the photograph of a flower bud of an individual treated with the mixed solution of mHd3a-1 and R9, which was taken on day 21. In addition, the numbers in the graph of FIG. 13 represent numbers of individuals that achieved the flowering at each number of leaves. […]

[3] = Search for florigen capable of high level expression (soluble fractions); settings: recombinant expression of mutated Hd3a
Text: FIG. 5 is a photograph showing mHd3a-1 separated and detected by SDS-PAGE through a conventional method.

[4] = tested on: flower-bud formation marker gene OsMADS15; assay: Florigen function in transient expression system for protoplasts (with OsFD1), RT-PCR; type: cell-based; settings: transiently expressed with OsFD1 in protoplasts; compared among five mutated Hd3a's
Text: (2) The florigen functions were examined for mutated Hd3a partial peptides of mHd3a-2F (full-length, having C43L, C109S, and C166S amino acid substitutions) and m-Hd3a-3F (full-length, having K31A, Y136A, and W140A amino acid substitutions) in addition to the mutated Hd3a's examined in (1) above, i.e., mHd3a-1, mHd3a-2T, and mHd3a-3T. The as say system used is a transient expression system for protoplasts. When the mutated Hd3a and a transcription factor OsFD1 are transiently expressed in protoplasts in this system, a flower-bud formation marker gene OsMADS15 is transcriptionally activated if the Hd3a is functional. The transient expression system for protoplasts was constructed according to the method described in Non Patent Literature 2. In addition, the expression of the OsMADS15 gene was examined by RT-PCR method according to the method described in Non Patent Literature 2.

rice shoot apical tissue = assay: Introduction of FITC-labeled florigen into cell of rice shoot apical tissue; type: cell-based; settings: florigen 50 μM, R9 500 μM in PBS (pH 7.4)
Experimental: (§1) The mHd3a-1 prepared by high level expression in Example 2 was labeled with a fluorochrome FITC. Subsequently, a rice shoot apical tissue was exposed under a stereomicroscope, and the cell-penetrating peptide and the florigen were mixed and used for treatment of the plant tissue in the same manner as in Example 1. A mixed solution was prepared by adding the florigen at a final concentration of 50 μM and the cell-penetrating peptide R9 at a final concentration of 500 μM in PBS (pH 7.4). The mixed solution was added dropwise to the exposed shoot apical tissue to bring the mixed solution into contact with the tissue. The tissue was treated for 16 hours at room temperature.

[5] = tested on: shoot apical tissues of corn; assay: Introduction of florigen into cells of shoot apical tissue of corn; type: cell-based; settings: mixed solution with R9 as in Example 3
Experimental: as §1
(§2) In the same manner as in Example 3, the mixed solution of the cell-penetrating peptide and the florigen was added dropwise to shoot apical tissues of corn and Arabidopsis to treat the tissues.

[6] = tested on: shoot apical tissues of Arabidopsis; assay: Introduction of florigen into cells of shoot apical tissue of Arabidopsis; type: cell-based; settings: mixed solution with R9 as in Example 3
Experimental: as §1, §2

[7] = tested on: flower-bud formation marker gene (OsMADS15 gene); assay: Expression of flower-bud formation marker gene after direct introduction of florigen, wild-type rice, real-time quantitative RT-PCR; type: in vivo; settings: wild-type rice shoot apical tissue; introduced with R9 as in Example 3
Text: (§3) (1) A rice shoot apical tissue into which the florigen was introduced was isolated in the same manner as in Example 3. RNA was extracted from the rice shoot apical tissue by a conventional method, and expression of a flower-bud formation marker gene (OsMADS15 gene) was examined by real-time quantitative RT-PCR (see Non Patent Literature 2 for the method).

[8] = tested on: flower-bud formation marker gene; assay: Expression of flower-bud formation marker gene after direct introduction of florigen, rice with all florigens inactivated (Hd3a-RFT1 double RNAi); type: in vivo; settings: introduced with R9 as in Example 3
Text: as §3
(2) Further, rice in which all florigens were inactivated (Hd3a-RFT1 double RNAi) (Komiya et al. (2008) Development 135:767-774) was subjected to the same experiment as in (1).

[9] = tested on: APETALA1 (AP1) gene, FRUITFULL (FUL) gene, and SQUAMOSA PROMOTER BINDING-LIKES (SPL3) gene; assay: Induction of expression of flowering-responsive genes in Arabidopsis after direct introduction of florigen, real-time quantitative RT-PCR; type: in vivo; settings: shoot apical tissue after 2 weeks cultivation
Text: The florigen was introduced directly into Arabidopsis in the same manner as in Example 6, and then the plants were cultivated for 2 weeks, followed by collection of a shoot apical tissue from each individual. RNA was extracted from the shoot apical tissue collected from each individual, and cDNA was synthesized based on a reverse transcription reaction. After that, the expression levels of APETALA1 (AP1) gene, FRUITFULL (FUL) gene, and SQUAMOSA PROMOTER BINDING-LIKES (SPL3) gene were examined by real-time quantitative RT-PCR (see Yamaguchi et al. Dev. Cell 17:268-278 (2009)).

For “R9: cell-penetrating peptide RRRRRRRRR (SEQ ID NO: 7), arginine-rich, artificially designed sequence (Membrane-permeable peptide R9)”, the “comprehensive efficiency of introduction of GFP” value [1] was “second highest”, the “change of introduction efficiency as molar ratio increased in the order of 0.01, 0.1, 1, and 10” value ([2]; mixed solution of cell-penetrating peptide and GFP) was “the introduction efficiency increased” and the “increase of efficiency of introduction of GFP, molar ratio 10 versus molar ratio 1” value ([2]; molar ratio of cell-penetrating peptide to protein 10 compared to 1) was 2.5 times. For the same substance, the “start of the flowering when the number of the leaves was 14 or less (almost all the plants)” value (Arabidopsis; R9 alone, short-day condition) was “did not start the flowering”.

In the case of “Tat: cell-penetrating peptide YGRKKRRQRRR (SEQ ID NO: 2), arginine-rich, derived from Tat protein of HIV virus (Membrane-permeable peptide Tat)”, the “comprehensive efficiency of introduction of GFP” value [1] was “second highest”.

With “mHR: mutated Hd3a incapable of being bound to a receptor (Hd3a R64D F103A R132D), used mixed with R9” the “effect of promoting the start of the flowering” value (Arabidopsis; used instead of mHd3a-1 in mixed solution with R9, short-day condition) was “not observed”.

With “mHd3a-1: mutated rice Hd3a, full-length, having K31A and E57A amino acid substitutions” the “high level expression and soluble fractions” value [3] was “capable of high level expression and providing soluble fractions”, the “activation of transcription of the OsMADS15 gene” value [4] was “most desirably activated” and the “localization in the cell of the rice shoot apical tissue” value (rice shoot apical tissue; 16 hours) was “localized accurately in the nucleus”. For the same substance, the “introduction into the rice shoot apical tissue” value (rice shoot apical tissue; 16 hours at room temperature) was “introduced efficiently”, the “introduction into the shoot apical tissue of corn” value [5] was “introduced efficiently” and the “localization in the cell of the shoot apical tissue of corn” value [5] was “localized accurately in the nucleus”. For the same substance, the “introduction into the shoot apical tissue of Arabidopsis” value [6] was “introduced efficiently”, the “localization in the cell of the shoot apical tissue of Arabidopsis” value [6] was “localized accurately in the nucleus” and the “expression of the flower-bud formation marker gene (OsMADS15 gene)” value [7] was “can activate expression”. For the same substance, the “expression of the flower-bud formation marker gene” value [8] was “could activate the expression”, the “plants able to start the flowering when the number of the leaves was 14 or less” value (Arabidopsis; Arabidopsis seedlings treated 2 days with mixed solution with R9 in ten-times diluted PBS, short-day condition 30 to 40 days) was “about 30%” and the “individuals treated in which induction of the expression was observed” value [9] was “about 30%”. The “expression of AP1, FUL and SPL3 genes” value ([9]; eIF4a internal standard) was “activated the expression of the three genes”.

With “mHd3a-2T: partial peptide of Hd3a, amino acids at positions from 6 to 170, having C43L, C109S, and C166S substitutions” the “high level expression and soluble fractions” value [3] was “capable of high level expression and providing soluble fractions”.

For “mHd3a-3T: partial peptide of Hd3a, amino acids at positions from 8 to 170, having K31A, Y136A, and W140A substitutions”, the “high level expression and soluble fractions” value [3] was “capable of high level expression and providing soluble fractions”.
